Measurements reported in US20250214947A1, “3,4-DIHYDROQUINOXALINE-2-CARBOXIMIDE DERIVATIVE COMPOUND AND PHARMACEUTICAL COMPOSITION COMPRISING SAME FOR PREVENTING OR TREATING CANCER DISEASE” (Cureverse Incorporated, priority 2022, published 2025).

Experiments:
Liver cancer cells Huh-7 = assay: Liver cancer cell growth inhibition, CellTiter-Glo Luminescent Cell Viability Assay; type: cell-based; details: various concentrations; day 1; FIG. 6
Method: In addition, an analysis of liver cancer growth inhibitory activity was performed. Liver cancer cells Huh-7 cells were dispensed in a 96-well plate at 1×10^4 cells/ml, and after 20 hours, PCI34051, Example 27, and Example 35 were added at various concentrations, and cultured for 24 and 48 hours at 37° C. in a 5% CO2 atmosphere. After culturing, 100 l CellTiter-Glo Luminescent Cell Viability Assay reagent was added and the luminescence signal was measured after 0.5-1 hour. The luminescence signal was measured using IVIS [PerkinElmer, (Waltham, USA)].

HDAC6 = target: T1, HDAC6 (Homo sapiens, UniProt Q9UBN7); assay: Selective inhibitory effect, HDAC Fluorogenic assay kit, HDAC6; details: read-out: HDAC6 enzyme activity (%)
T1 sequence (Q9UBN7 1-1215): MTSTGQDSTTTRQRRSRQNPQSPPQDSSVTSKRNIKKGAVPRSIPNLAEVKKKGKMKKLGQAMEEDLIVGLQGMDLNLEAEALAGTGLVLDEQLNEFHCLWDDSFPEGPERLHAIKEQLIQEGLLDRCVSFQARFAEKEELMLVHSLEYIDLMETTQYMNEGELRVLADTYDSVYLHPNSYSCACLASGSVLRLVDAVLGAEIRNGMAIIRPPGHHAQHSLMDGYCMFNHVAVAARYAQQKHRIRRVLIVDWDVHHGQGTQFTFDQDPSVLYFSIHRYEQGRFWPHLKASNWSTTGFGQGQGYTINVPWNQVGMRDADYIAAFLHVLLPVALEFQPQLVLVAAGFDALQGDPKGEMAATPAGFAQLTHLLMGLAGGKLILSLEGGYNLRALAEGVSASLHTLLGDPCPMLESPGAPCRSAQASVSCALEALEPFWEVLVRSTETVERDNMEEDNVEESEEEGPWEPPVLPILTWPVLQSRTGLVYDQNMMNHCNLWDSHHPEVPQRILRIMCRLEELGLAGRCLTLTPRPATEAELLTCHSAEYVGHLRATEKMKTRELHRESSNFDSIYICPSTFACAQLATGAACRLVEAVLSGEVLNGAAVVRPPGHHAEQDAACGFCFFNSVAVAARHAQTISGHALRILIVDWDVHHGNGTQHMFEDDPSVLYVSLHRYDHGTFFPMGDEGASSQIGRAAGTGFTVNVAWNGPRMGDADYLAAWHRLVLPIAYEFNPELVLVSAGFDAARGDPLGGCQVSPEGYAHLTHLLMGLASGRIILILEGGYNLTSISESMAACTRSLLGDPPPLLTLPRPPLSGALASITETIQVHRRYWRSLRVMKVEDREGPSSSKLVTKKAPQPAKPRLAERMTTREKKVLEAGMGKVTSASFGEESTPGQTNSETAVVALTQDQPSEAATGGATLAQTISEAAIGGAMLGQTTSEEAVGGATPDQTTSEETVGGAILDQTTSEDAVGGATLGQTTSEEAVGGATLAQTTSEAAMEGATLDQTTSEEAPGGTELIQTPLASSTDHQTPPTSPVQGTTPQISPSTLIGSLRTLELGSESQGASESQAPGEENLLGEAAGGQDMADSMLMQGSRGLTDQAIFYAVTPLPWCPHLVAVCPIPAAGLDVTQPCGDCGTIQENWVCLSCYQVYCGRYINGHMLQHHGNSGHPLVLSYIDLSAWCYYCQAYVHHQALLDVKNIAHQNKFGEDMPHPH
Method: For analysis, HDAC substrate 3 was diluted in buffer to a concentration of 200 μM and used in HDAC 1, 2, 3, 6, and 10 assays, HDAC substrate 2A was diluted in buffer to a concentration of 200 μM and used in HDAC 4, 7, 9, and 11 assays, HDAC substrate 2A was diluted in buffer to a concentration of 20 μM and used in HDAC 8 assays. For the HDAC 11 assay, a dedicated buffer included in the kit was used separately, and the same buffer was used for the remaining assays. The compound of the Example was diluted to 1 mM (1% DMSO concentration) using DMSO to obtain a final concentration of 10 μM, and prepared by diluting 1/10 with assay buffer. In a 96-well black round-bottom plate, 5 μL of the diluted compound of the Example, 5 μL of the diluted HDAC substrate, 5 μL of BSA (1 mg/ml), 5 μL of the HDAC enzyme diluted to the appropriate concentration, and 30 μL of assay buffer were added, and the enzyme reaction was performed at 37° C. for 30 minutes. […] Afterwards, 50 μL of 2×HDAC developer was added to each well. After reacting for 15 minutes at room temperature, the fluorescence values at excitation wavelengths of 350-380 nm and emission wavelengths of 440-460 nm were measured using a microplate reader (Synergy Neo).

remaining activity at 10 µM (HDAC6): 43.7%
SMILES: Cc1cc2nc(C(=O)NCCc3c[nH]c4ccc(O)cc34)c(=O)n(C[C@H](O)[C@H](O)[C@H](O)CO)c2cc1C [Example 27, N-(2-(5-hydroxy-1H-indol-3-yl)ethyl)-6,7-dimethyl-3-oxo-4-((2S,3S,4R)-2,3,4,5-tetrahydroxypentyl)-3,4-dihydroquinoxaline-2-carboxamide]
Huh-7 cell viability (in words) (Liver cancer cells Huh-7): concentration-dependent inhibition of cancer cell viability
